≈ marks a conversion by molar mass, not a printed value. Like-named read-outs stand apart in the source and are kept apart here.
Experiments:
[1] = Equilibrium solubility evaluation in lipids and cosolvents; type: physicochemical; details: for solubility at 72 h: 37 °C, thermodynamic from solid, read-out: solubility of PTX
Experimental: Solubility evaluation of PTX was carried out in various oils and cosolvents till attaining equilibrium by addition of excess quantity of drug to 1 gm of each of the excipient in culture vials and mixed well using vortex mixer (Remi Instruments, Mumbai, India). The sealed vials were kept on water bath shaker at 37±0.5° C. for 72 h for 150 strokes per minute. After specified time period, the samples were centrifuged at 3,000 rpm (402.5×g) for 15 minutes using a laboratory centrifuge (Remi Instruments, Mumbai, India). Drug was extracted in acetonitrile and supernatant fraction was filtered through 0.45 μm membrane filter, suitably diluted and analyzed by previously developed HPLC method.

[2] = cited from earlier work

solubility at 72 h ([1]; aqueous with cosolvent or surfactant or cyclodextrin, in Tween® 80, 37±0.5° C., 72 h): 78 mg/mL (≈ 91.3 mM)
solubility at 72 h ([1]; aqueous with cosolvent or surfactant or cyclodextrin, in surfactin): 106 mg/mL (≈ 124 mM)
solubility at 72 h ([1]; organic solvent or mixture, in Transcutol® HP, 37±0.5° C., 72 h): 235 mg/mL (≈ 275 mM)
solubility of PTX ([1]; in 1:1 ratio mixture of ethyl oleate:Plurol® Oleique, 37±0.5° C., 72 h): 198.5 mg/mL
Structure (SMILES): CC(=O)O[C@H]1C(=O)[C@@]2(C)[C@H]([C@H](OC(=O)c3ccccc3)[C@]3(O)C[C@H](OC(=O)[C@H](O)[C@@H](NC(=O)c4ccccc4)c4ccccc4)C(C)=C1C3(C)C)[C@]1(OC(C)=O)CO[C@@H]1C[C@@H]2O [PTX, Paclitaxel]
oral bioavailability [2]: 5%

Reference: patent publication US11547690B1, “Chemotherapeutic self-nanoemulsifying drug delivery systems and uses thereof” (KING ABDULAZIZ UNIVERSITY, priority 2022, dated 2023)
